Measurements from ChEMBL document CHEMBL3868581, “Avarol derivatives as competitive AChE inhibitors, non hepatotoxic and neuroprotective agents for Alzheimer's disease” (Eur J Med Chem, 2016).
Active and inactive are the calls of the source. The calls are words filed in the database; no cut-off is given here.

Columns and labels:
Acetylcholinesterase [1] = biological target: T1, Acetylcholinesterase (Electrophorus electricus, UniProt O42275)
Description: Inhibition of Electrophorus electricus AChE using acetylthiocholine iodide as substrate incubated for 15 mins followed by substrate addition by Ellman's method

SH-SY5Y [2] = experiment: Neuroprotective activity against oligomycine/rotenone-induced oxidative stress-mediated cell death in human SH-SY5Y cells assessed as increase in cell viability at 10 uM after 24 hrs by microscopic analysis; format: functional, cell-based
cells [3] = details: Homo sapiens, SH-SY5Y, 24 h
Description: Neuroprotective activity against oligomycine/rotenone-induced oxidative stress-mediated cell death in human SH-SY5Y cells assessed as increase in cell viability after 24 hrs by XTT assay

[4] = Neurotoxicity in human SH-SY5Y cells assessed as decrease in cell viability at 25 to 50 uM after 24 hrs by XTT assay; format: toxicity, cell-based
HepG2 [5] = experiment: Hepatoprotective activity in human HepG2 cells at 1 to 25 uM after 24 hrs by XTT assay; format: functional, cell-based
[6] = biological target: Acetylcholinesterase (Electrophorus electricus) (UniProt O42275); experiment: Competitive inhibition of Electrophorus electricus AChE using acetylthiocholine iodide as substrate at 0.001 to 10 uM incubated for 15 mins followed by substrate addition by Lineweaver-Burk reciprocal plot analysis
Sequence of Acetylcholinesterase (Electrophorus electricus) (O42275 24-633 limits assumed): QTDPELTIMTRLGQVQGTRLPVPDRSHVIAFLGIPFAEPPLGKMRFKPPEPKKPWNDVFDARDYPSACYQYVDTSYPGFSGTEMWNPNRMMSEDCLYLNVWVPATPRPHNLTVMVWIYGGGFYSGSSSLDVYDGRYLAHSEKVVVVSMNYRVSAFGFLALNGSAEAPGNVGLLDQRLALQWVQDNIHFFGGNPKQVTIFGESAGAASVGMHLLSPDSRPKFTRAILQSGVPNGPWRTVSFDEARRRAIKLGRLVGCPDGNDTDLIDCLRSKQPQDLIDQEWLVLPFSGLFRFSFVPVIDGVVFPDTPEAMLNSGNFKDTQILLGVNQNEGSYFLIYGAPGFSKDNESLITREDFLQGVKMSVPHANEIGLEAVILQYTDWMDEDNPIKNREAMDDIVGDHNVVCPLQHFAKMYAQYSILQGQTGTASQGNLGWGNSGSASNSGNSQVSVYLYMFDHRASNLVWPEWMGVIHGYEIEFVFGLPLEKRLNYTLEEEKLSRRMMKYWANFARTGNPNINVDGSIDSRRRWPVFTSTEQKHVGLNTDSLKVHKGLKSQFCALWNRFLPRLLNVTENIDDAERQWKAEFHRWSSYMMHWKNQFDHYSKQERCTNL

[7] = biological target: Cholinesterase (Equus caballus) (UniProt P81908); experiment: Inhibition of equine serum BuChE using butyrylthiocholine iodide as substrate at 50 uM incubated for 15 mins followed by substrate addition by Ellman's method
Sequence of Cholinesterase (Equus caballus) (P81908 whole entry): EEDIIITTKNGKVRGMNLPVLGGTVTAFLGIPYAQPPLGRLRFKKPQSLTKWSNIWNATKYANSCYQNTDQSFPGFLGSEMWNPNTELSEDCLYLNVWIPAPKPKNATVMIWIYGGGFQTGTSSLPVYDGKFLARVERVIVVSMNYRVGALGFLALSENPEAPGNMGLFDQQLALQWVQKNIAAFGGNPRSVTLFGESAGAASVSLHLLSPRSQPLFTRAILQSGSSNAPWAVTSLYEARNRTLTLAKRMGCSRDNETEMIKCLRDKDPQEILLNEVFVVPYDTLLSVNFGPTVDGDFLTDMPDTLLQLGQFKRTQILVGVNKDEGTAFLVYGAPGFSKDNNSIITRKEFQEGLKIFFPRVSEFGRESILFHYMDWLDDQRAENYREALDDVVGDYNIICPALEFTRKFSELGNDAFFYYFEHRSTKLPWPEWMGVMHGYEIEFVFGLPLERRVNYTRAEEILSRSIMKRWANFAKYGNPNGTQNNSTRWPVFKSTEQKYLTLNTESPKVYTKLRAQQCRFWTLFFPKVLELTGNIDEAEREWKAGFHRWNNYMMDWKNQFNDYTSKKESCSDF

[8] = Neurotoxicity in human SH-SY5Y cells assessed as decrease in cell viability at 1 uM after 24 hrs by XTT assay; format: toxicity, cell-based
SH-SY5Y [9] = experiment: Neuroprotective activity against okadaic acid-induced tau phosphorylation-mediated cell death in human SH-SY5Y cells assessed as increase in cell viability at 10 uM after 24 hrs by microscopic analysis; format: functional, cell-based
Acetylcholinesterase [10] = biological target: T1, Acetylcholinesterase; remark: listed apart in the source
Description: Inhibition of Electrophorus electricus AChE using acetylthiocholine iodide as substrate by Dixon plot analysis

HepG2 [11] = experiment: Hepatotoxicity in human HepG2 cells assessed as decrease in cell viability at 1 to 100 uM after 24 hrs by XTT assay; format: toxicity, cell-based; details: hepg2, 24 h
Cholinesterase = Cholinesterase (Equus caballus, UniProt P81908)
Sequence of Cholinesterase (P81908 whole entry): as above
Description: Inhibition of equine serum BuChE using butyrylthiocholine iodide as substrate incubated for 15 mins followed by substrate addition by Ellman's method

cells [12] = details: Homo sapiens, SH-SY5Y, 24 h; remark: listed apart in the source
Description: Neuroprotective activity against okadaic acid-induced tau phosphorylation-mediated cell death in human SH-SY5Y cells assessed as increase in cell viability after 24 hrs by XTT assay

HepG2 [13] = experiment: Hepatotoxicity in human HepG2 cells assessed as decrease in cell viability at 100 uM after 24 hrs by XTT assay; format: toxicity, cell-based; details: hepg2, 24 h
cells [14] = details: Rattus norvegicus, Sprague-Dawley, Cortical neurone, 3 h
Description: Neuroprotective activity against NMDA-induced excitotoxicity in Sprague-Dawley rat primary cortical neurons assessed as increase in cell viability after 3 hrs by MTT assay

T1 sequence (O42275 whole entry): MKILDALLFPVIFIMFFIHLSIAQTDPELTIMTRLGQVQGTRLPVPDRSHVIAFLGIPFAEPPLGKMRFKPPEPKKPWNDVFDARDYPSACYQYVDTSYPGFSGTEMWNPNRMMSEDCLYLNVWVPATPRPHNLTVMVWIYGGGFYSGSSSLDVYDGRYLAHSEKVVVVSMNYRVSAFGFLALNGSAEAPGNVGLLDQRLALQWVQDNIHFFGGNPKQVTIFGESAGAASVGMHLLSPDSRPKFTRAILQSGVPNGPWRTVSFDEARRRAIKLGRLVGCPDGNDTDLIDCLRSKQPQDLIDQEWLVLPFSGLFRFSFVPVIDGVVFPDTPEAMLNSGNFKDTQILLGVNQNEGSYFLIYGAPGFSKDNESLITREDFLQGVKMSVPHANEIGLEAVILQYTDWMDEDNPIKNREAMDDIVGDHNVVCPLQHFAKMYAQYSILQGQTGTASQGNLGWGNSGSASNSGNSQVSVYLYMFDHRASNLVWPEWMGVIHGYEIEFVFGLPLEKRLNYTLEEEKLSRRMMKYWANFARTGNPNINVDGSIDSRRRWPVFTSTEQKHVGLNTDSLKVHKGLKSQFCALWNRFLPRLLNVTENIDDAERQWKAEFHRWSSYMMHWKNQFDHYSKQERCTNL

Compound | IC50 (Acetylcholinesterase [1]) [µM] | Activity (SH-SY5Y [2]) | EC50 (cells [3]) [µM] | Activity [4] | Activity (HepG2 [5]) | inhibition [6] | Imax [7] [%] | Activity [8] | Activity (SH-SY5Y [9]) | Ki (Acetylcholinesterase [10]) [nM] | Activity (HepG2 [11]) | IC50 (Cholinesterase) [µM] | EC50 (cells [12]) [µM] | Activity (HepG2 [13]) | EC50 (cells [14]) [µM]
CC(C)=CCC/C(C)=C/CC/C(C)=C/CC/C(C)=C/Cc1cc(O)cc(Sc2ccccc2C(=O)O)c1O | 6.77 | Active | 0.52 | Non-Toxic | Active | Active | 60.5 | Non-Toxic | Active | 0.00059 | Non-Toxic | 19.7 | 0.15 | – | –
CC(C)=CCC/C(C)=C/Cc1cc(O)cc(Sc2ccccc2C(=O)O)c1O | 13.1 | – | 8.17 | Non-Toxic | – | – | 17.8 | Non-Toxic | – | – | Non-Toxic | – | 0.22 | – | –
CC(C)=CCC/C(C)=C/CC/C(C)=C/Cc1cc(O)cc(Sc2ccccc2C(=O)O)c1O | 18.1 | – | 13.6 | Non-Toxic | – | – | 8.4 | Non-Toxic | – | – | Non-Toxic | – | 0.516 | – | –
CC1=CCC[C@H]2[C@](C)(Cc3cc(O)cc(Sc4ccccc4C(=O)O)c3O)[C@@H](C)CC[C@]12C | 15.1 | – | – | – | – | Active | 77.5 | – | – | 0.0585 | – | 15.1 | – | – | –
CC1=CCC[C@H]2[C@](C)(Cc3cc(O)ccc3O)[C@@H](C)CC[C@]12C [AVAROL] | 286 | – | – | Non-Toxic | – | – | – | Non-Toxic | – | – | – | – | – | – | –
C/C(=C\Cc1cc(O)cc(Sc2ccccc2C(=O)O)c1O)CCCC(C)CCCC(C)CCCC(C)C (configuration not stated) | 13.8 | – | 1.1 | Non-Toxic | – | – | 94.3 to 95 | Non-Toxic | – | – | – | 12.8 | 1.21 | Toxic | –
CC(C)=CCc1cc(O)cc(Sc2ccccc2C(=O)O)c1O | 7.88 | – | 4.65 | Non-Toxic | – | Active | 13.1 | Non-Toxic | – | 0.221 | Non-Toxic | – | 0.54 | – | –
COc1ccc2c3c1O[C@H]1C[C@@H](O)C=C[C@@]31CCN(C)C2 [GALANTAMINE] | – | – | 2.81 | Non-Toxic | – | – | – | Non-Toxic | – | – | – | – | 1.94 | – | 1.48
